Numbers after ± are expanded uncertainties.
Key:
[1] = for viscosity / mass density: 101 kPa, Liquid; for viscosity: Capillary tube (Ostwald / Ubbelohde) method; for mass density: Vibrating tube method
[2] = refractive index (Na D-line) (dimensionless); conditions: 101.33 kPa, Liquid
[3] = xn = mol fraction of the nth substance listed; conditions: x1 = 1; for viscosity / mass density: 101 kPa, Liquid; for viscosity: Capillary tube (Ostwald / Ubbelohde) method; for mass density: Vibrating tube method
[4] = refractive index (Na D-line) (dimensionless); xn = mol fraction of the nth substance listed; conditions: 101 kPa, Liquid, x1 = 1

CCCCCCCCCCCC [dodecane]
Conditions	mass density, [1] [kg/m3]	refractive index, [2]	surface tension liquid-gas, [1] [mN/m]	viscosity, [1] [mPa·s]
293.15 K	748.6 ± 0.2	1.4219 ± 0.0013	24.07 ± 0.34	1.507 ± 0.012
298.15 K	745 ± 0.2	–	–	1.377 ± 0.011
303.15 K	741.4 ± 0.2	1.4168 ± 0.0013	23.67 ± 0.34	1.266 ± 0.01
313.15 K	734.1 ± 0.2	–	–	1.084 ± 0.009

CCCCCCCCCCCC [dodecane] + C1C[C@@H]2[C@H]3CC[C@H](C3)[C@@H]2C1
Conditions	mass density, [3] [kg/m3]	refractive index, [4]	surface tension liquid-gas, [3] [mN/m]	viscosity, [3] [mPa·s]
293.15 K	748.6 ± 0.2	1.4219 ± 0.0013	24.07 ± 0.34	1.507 ± 0.012
298.15 K	745 ± 0.2	–	–	1.377 ± 0.011
303.15 K	741.4 ± 0.2	1.4168 ± 0.0013	23.67 ± 0.34	1.266 ± 0.01
313.15 K	734.1 ± 0.2	–	–	1.084 ± 0.009

C1C[C@@H]2[C@H]3CC[C@H](C3)[C@@H]2C1 [exo-tetrahydrodicyclopentadiene]
[1], Capillary rise
Conditions	surface tension liquid-gas [mN/m]
293.15 K	31.86 ± 0.38
303.15 K	31.09 ± 0.38

Conditions	mass density, 293.15 K [kg/m3]	mass density, 298.15 K [kg/m3]	mass density, 303.15 K [kg/m3]	mass density, 313.15 K [kg/m3]	refractive index, 293.15 K	refractive index, 303.15 K	viscosity, 293.15 K [mPa·s]	viscosity, 298.15 K [mPa·s]	viscosity, 303.15 K [mPa·s]	viscosity, 313.15 K [mPa·s]
[1]	935.3 ± 0.8	931.4 ± 0.8	927.5 ± 0.8	919.6 ± 0.7	–	–	3.077 ± 0.035	2.784 ± 0.032	2.525 ± 0.029	2.112 ± 0.024
[2]	–	–	–	–	1.4877 ± 0.0013	1.4832 ± 0.0013	–	–	–	–

CCCCCCCCC [nonane]
[1], Capillary rise
Conditions	surface tension liquid-gas [mN/m]
293.15 K	22.2 ± 0.24
303.15 K	21.41 ± 0.23

Conditions	mass density, 293.15 K [kg/m3]	mass density, 298.15 K [kg/m3]	mass density, 303.15 K [kg/m3]	mass density, 313.15 K [kg/m3]	refractive index, 293.15 K	refractive index, 303.15 K	viscosity, 293.15 K [mPa·s]	viscosity, 298.15 K [mPa·s]	viscosity, 303.15 K [mPa·s]	viscosity, 313.15 K [mPa·s]
[1]	717.8 ± 0.3	713.9 ± 0.3	710 ± 0.3	702.1 ± 0.3	–	–	0.733 ± 0.006	0.687 ± 0.006	0.647 ± 0.005	0.579 ± 0.005
[2]	–	–	–	–	1.4048 ± 0.0013	1.4001 ± 0.0013	–	–	–	–

CCCCCCCCC [nonane] + C1C[C@@H]2[C@H]3CC[C@H](C3)[C@@H]2C1
[3], Capillary rise
Conditions	surface tension liquid-gas [mN/m]
293.15 K	22.2 ± 0.24
303.15 K	21.41 ± 0.23

Conditions	mass density, 293.15 K [kg/m3]	mass density, 298.15 K [kg/m3]	mass density, 303.15 K [kg/m3]	mass density, 313.15 K [kg/m3]	refractive index, 293.15 K	refractive index, 303.15 K	viscosity, 293.15 K [mPa·s]	viscosity, 298.15 K [mPa·s]	viscosity, 303.15 K [mPa·s]	viscosity, 313.15 K [mPa·s]
[3]	717.8 ± 0.3	713.9 ± 0.3	710 ± 0.3	702.1 ± 0.3	–	–	0.733 ± 0.006	0.687 ± 0.006	0.647 ± 0.005	0.579 ± 0.005
[4]	–	–	–	–	1.4048 ± 0.0013	1.4001 ± 0.0013	–	–	–	–

CCCCCCCCCCCCC [tridecane]
Conditions	mass density, [1] [kg/m3]	refractive index, [2]	surface tension liquid-gas, [1] [mN/m]	viscosity, [1] [mPa·s]
293.15 K	756.5 ± 0.2	1.4253 ± 0.0013	24.79 ± 0.34	1.894 ± 0.014
298.15 K	752.9 ± 0.2	–	–	1.726 ± 0.013
303.15 K	749.3 ± 0.2	1.4213 ± 0.0013	24.08 ± 0.34	1.577 ± 0.012
313.15 K	742.2 ± 0.2	–	–	1.325 ± 0.01

CCCCCCCCCCCCC [tridecane] + C1C[C@@H]2[C@H]3CC[C@H](C3)[C@@H]2C1
Conditions	mass density, [3] [kg/m3]	refractive index, [4]	surface tension liquid-gas, [3] [mN/m]	viscosity, [3] [mPa·s]
293.15 K	756.5 ± 0.2	1.4253 ± 0.0013	24.79 ± 0.34	1.894 ± 0.014
298.15 K	752.9 ± 0.2	–	–	1.726 ± 0.013
303.15 K	749.3 ± 0.2	1.4213 ± 0.0013	24.08 ± 0.34	1.577 ± 0.012
313.15 K	742.2 ± 0.2	–	–	1.325 ± 0.01

Source: the NIST ThermoML archive (doi:10.1021/je200757a)
